Data from patent publication US9676749B2, “Compositions and methods for cancer detection and treatment” (Ohio State Innovation Foundation, priority 2009, dated 2017).
Entries after “also recorded” stand apart in the source; their conditions may differ. Like-named read-outs stand apart in the source and are kept apart here.

Columns and labels:
purified PRMT1 = purified PRMT1 (Homo sapiens, UniProt Q99873); conditions: 100-500 uM, one hour at 37 C, 3 replicate experiments, p<0.0001
From the text: (§1) Do achieve this, we performed enzyme inhibition assays using purified PRMT1 (a type I PRMT enzyme) and purified PRMT5 (a type II PRMT enzyme).
(§2) The next step required studies to explore whether CMP5 was capable of selectively inhibiting a type II PRMT enzyme. Type I PRMT enzymes are involved in transcriptional activation (asymmetric dimethylation at H4R3) and type II PRMT enzymes regulates transcriptional repression (symmetric dimethylation or S2Mc at H4R3). To achieve this goal, we performed enzyme inhibition assays using purified PRMT1 (type I PRMT enz) and purified PRMT5 (type II PRMT enz). Assays were performed utilizing 2 methods. The first utilized methods described previously by Zhao et at (Nat Struct Mol Biol. 2009), where 1 ug of H4 (Roche) was used as substrate and 2 uCi of S-adenosyl-L-methyl-^3H-methionine (^3H-SAM; Amersham) as the methyl donor in the presence or absence of 100-500 uM of CMP5 was incubated in HMTase buffer for 3 h at 37° C. Reaction mixtures were spotted on Whatman P-81 filter paper and washed to remove unincorporated [^3H]SAM. Methylated peptides were detected by scintillation counting. […] The second method utilized a methyltransferase activity assay to distinguish if differential inhibitory activity of CMP5 existed against the type I PRMT1 vs. the type II enzyme PRMT. The methyltransferase assay we used (Amsbio inc) utilized purified PRMT5 and PRMT1 enzyme preparations and tested for methylation of Histone H4 at arginine 3 (H4R3). SAM was incubated with a sample containing substrate H4 peptide, different concentrations of methyltransferase enzymes (PRMT5 or PRMT1), in presence or absence of CMP5 (100-500 uM) for one hour at 37° C. Fluorescently labeled SAM tracer was added followed by anti-SAM antibody that produces a change in fluorescent polarization that can be measured using a fluorescence reader.

purified PRMT5 [1] = target: T1, purified PRMT5 (Homo sapiens, UniProt O14744)
T1 sequence (O14744 whole entry): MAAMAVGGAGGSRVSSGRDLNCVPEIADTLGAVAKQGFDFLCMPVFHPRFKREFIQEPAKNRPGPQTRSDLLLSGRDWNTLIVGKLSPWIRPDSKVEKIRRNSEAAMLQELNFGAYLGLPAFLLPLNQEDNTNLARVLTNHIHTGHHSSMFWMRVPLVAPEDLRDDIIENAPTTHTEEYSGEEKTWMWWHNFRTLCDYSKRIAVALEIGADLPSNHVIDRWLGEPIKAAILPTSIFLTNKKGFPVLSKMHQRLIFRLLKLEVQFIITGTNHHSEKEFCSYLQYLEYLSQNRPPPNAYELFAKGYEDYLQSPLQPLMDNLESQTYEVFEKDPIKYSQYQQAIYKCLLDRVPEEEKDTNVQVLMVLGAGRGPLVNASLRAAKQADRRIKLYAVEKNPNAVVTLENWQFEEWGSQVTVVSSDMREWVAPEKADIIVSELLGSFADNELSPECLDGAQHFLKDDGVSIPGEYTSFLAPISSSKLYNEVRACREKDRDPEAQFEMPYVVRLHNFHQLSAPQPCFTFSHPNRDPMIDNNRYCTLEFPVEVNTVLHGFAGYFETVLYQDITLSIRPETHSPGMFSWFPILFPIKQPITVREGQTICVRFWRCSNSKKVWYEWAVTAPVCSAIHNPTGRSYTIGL
T1 sequence (Q9BQA1 whole entry partner): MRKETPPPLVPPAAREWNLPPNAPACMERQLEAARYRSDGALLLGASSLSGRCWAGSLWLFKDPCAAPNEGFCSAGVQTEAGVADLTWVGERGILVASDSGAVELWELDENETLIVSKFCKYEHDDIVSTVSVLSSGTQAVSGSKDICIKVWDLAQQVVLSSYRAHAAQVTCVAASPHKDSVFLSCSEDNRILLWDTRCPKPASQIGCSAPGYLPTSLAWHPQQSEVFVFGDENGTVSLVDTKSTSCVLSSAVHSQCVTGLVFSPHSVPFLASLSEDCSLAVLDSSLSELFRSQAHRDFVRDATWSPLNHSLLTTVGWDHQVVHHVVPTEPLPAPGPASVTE
From the text: as §1, §2

[2] = tested on: symmetrical dimethylation (S2Me) of histone H4R3 in glioma cell line U1242; assay: Symmetric dimethyl H4R3 (S2Me-H4R3) content in glioma/astrocytoma cell lines by confocal microscopy and flow cytometry; format: cell-based, human; conditions: for S2Me-H4R3 in astrocytoma cell lines, single agent or combined: CMP5 at 25 uM, HDAC inhibitor TSA; for H4R3 symmetric 2Me arginine methylation (S2Me): U1242, 8 hour incubation, confocal microscopy; for S2Me-H4R3 content, flow cytometric assay (FIG. 18): U1242 and U251, TSA (25 nM) and/or CMP5 (25 uM)
Protocol: (§3) Confocal microscopy was used with mAbs specific for symmetrical dimethylation (S2Me) of histone H4R3. Positive control for loss of PRMT5 activity was provided by treatment of U1242 cells with a PRMT5-specific siRNA used in above experiments. (B) Cell proliferation was assessed in replicate cultures incubated in DMSO and compounds 1-8.
Initial Screening experiments were performed utilizing monoclonal antibodies specific for H4R3 symmetric dimethyl arginine and confocal microscopy generated images evaluating H4R3 methylation. Controls included scrambled and SiRNA specific for PRMT5 to verify knockdown and loss of H4R3 methylation. […] Findings similar to PRMT5-specific SiRNA treatment.
Recent work reported by Pal et al has shown that PRMT5 associates with SWI/SNF chromatin remodeling complexes along with other co-repressor molecules like HDAC2. […] We utilized a flow cytometric assay to evaluate symmetric dimethyl H4R3 (S2Me-H4R3) content and confocal microscopy to verify loss of methylation status.
(§4) The biochemical association of PRMT5 and HDAC2 with repressive chromatin remodeling complexes and cooperative enzyme kinetics has been previously described. […] As a control, we utilized a flow cytometric assay to evaluate symmetric dimethyl H4R3 (S2Me-H4R3, FIG. 18) content and confocal microscopy (not shown) to verify decrease of methylation status. We used Aimexin V/PI staining and flow cytometry to examine apoptosis (below). […] We are presently performing dose response experiments to examine whether this activity can be improved. In data not shown, we can achieve similar results with lower doses of CMP5 (10 uM). […] Inhibition PRMT5 with CMP5 and HDAC enzymes (at 10 fold lower concentrations) leads to synergistic induction of apoptosis of astrocytoma cell lines.

purified PRMT5 [3] = target: T1, purified PRMT5; conditions: 100-500 uM CMP5, H4 substrate, 3H-SAM, 3 h at 37 C; ±7.8%, p<0.001, data not shown
Protocol: as §2, with “The methyltransferase assay we used (Amsbio inc) utilized purified PRMT5 and PRMT1 enzyme preparations and tested for methylation of Histone H4 at arginine 3 (H4R3). SAM was incubated with a sample containing substrate H4 peptide, different concentrations of methyltransferase enzymes (PRMT5 or PRMT1), in presence or absence of CMP5 (100-500 uM) for one hour at 37° C.” left out

[4] = tested on: astrocytoma cell lines (U1242 and U251); assay: Apoptosis of GBM/astrocytoma cell lines (Annexin V/PI, flow cytometry); format: cell-based, human; conditions: single agents, not shown
From the text: (B) inhibition of migration at 12 hrs after addition of siRNA to knock down PRMT5 vs. Scramble siRNA control.
as §4

human pure PRMT5 enzyme = human pure PRMT5 enzyme (Homo sapiens, UniProt O14744); assay: In vitro methylation assay; format: biochemical; conditions: FIG. 21 left
Sequence of human pure PRMT5 enzyme (O14744 whole entry): as the sequence (O14744 whole entry) above
Sequence of human pure PRMT5 enzyme (Q9BQA1 whole entry partner): as the sequence (Q9BQA1 whole entry partner) above
Protocol: SAM was omitted for the substrate control, and human pure PRMT5 enzyme was omitted for blank control. (right) Jeko and Mino cells were treated by 10 uM of BLL36 for 24 hr, viability was evaluated by flow cytometry.

U1242 cell line = assay: Cell proliferation of GBM cells; format: cell-based, human; conditions: for cell proliferation / anti proliferative activity: GBM cells (U1242), vs DMSO control
Protocol: as §3
Preliminary enzymatic activity assays are currently underway and will be provided as an update during submission of supplementary materials.

[5] = compound 5 at 20, 30, 40, 50 and 100 uM, 48 hours

Sequence of purified PRMT1 (Q99873 whole entry, species assumed): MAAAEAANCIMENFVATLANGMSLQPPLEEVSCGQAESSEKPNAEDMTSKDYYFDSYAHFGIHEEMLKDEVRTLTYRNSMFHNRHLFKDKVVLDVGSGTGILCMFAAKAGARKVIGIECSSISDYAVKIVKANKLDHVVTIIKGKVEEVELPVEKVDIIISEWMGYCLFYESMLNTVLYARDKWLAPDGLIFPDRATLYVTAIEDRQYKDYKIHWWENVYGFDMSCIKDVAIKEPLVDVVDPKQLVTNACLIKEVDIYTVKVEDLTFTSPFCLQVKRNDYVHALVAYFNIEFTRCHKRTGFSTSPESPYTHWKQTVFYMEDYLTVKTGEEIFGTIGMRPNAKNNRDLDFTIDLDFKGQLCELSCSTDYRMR

inhibition of PRMT1 activity (purified PRMT1)	inhibition of PRMT1 activity (purified PRMT1; listed as CMP5)	inhibition of PRMT5 activity (purified PRMT5 [1]; 100-500 uM, one hour at 37 C, 3 replicate experiments, p<0.0001)	IC50 (purified PRMT5 [1]; lead compound of the initial screen)	reduction of methyltransferase activity (purified PRMT5 [3]) [%]	concentration that decreased methyltransferase activity of PRMT5 (human pure PRMT5 enzyme) [µM]	Compound	S2Me-H4R3 in astrocytoma cell lines, single agent or combined [2]	concentration of compound 5 giving loss of S2Me status of H4R3 on co-treatment with HDACi TSA ([2]; GBM cell lines, co-treated with TSA) [µM]	fold lower concentration of compound 5 for loss of S2Me H4R3 on co-treatment with TSA ([2]; GBM cell lines, co-treated with TSA (75, 100 nM)) [fold]	H4R3 symmetric 2Me arginine methylation (S2Me) [2]	H4R3 symmetric 2Me arginine methylation (S2Me) ([2]; listed as CMP5)	S2Me-H4R3 content, flow cytometric assay (FIG. 18) [2]	degree of H4R3 methylation, titration [2, 5]	concentration of CMP5 required for reduced methylation, single agent ([2]; original dose response experiments) [µM]	apoptosis of GBM cell lines [4]	cell proliferation / anti proliferative activity (U1242 cell line)	cell proliferation / anti proliferative activity (U1242 cell line; listed as CMP5)	cellular proliferation (absolute cell numbers), titration (U1242 cell line; [5])
not PRMT1 activity	not PRMT1 enzymatic activity	selectively inhibiting PRMT5 activity	micromolar (uM) ranges	55	100	CCn1c2ccccc2c2cc(CNCc3ccccn3)ccc21 [Compound 5]	unchanged	10	> 10	most efficacy; also recorded: best activity; also recorded: reduced; also recorded: capable of inhibiting H4R3 symmetric 2Me arginine methylation	loss of symmetric dimethyl-H4R3	no change in S2Me-H4R3	a dose response was seen	100	promote apoptosis of GBM cell lines	most efficacy; also recorded: reduced cell proliferation	antiproliferative effect	a dose response was seen
						CC(/C=C/C(=O)NO)=C\[C@@H](C)C(=O)c1ccc(N(C)C)cc1 [TSA, Trichostatin A, reference compound]	unchanged					no change in S2Me-H4R3						
